From PMC11302729, “Repurposing Hsp90 inhibitors as antimicrobials targeting two-component systems identifies compounds leading to loss of bacterial membrane integrity” (Microbiology Spectrum, 2024)
Converted amounts (≈) assume the structure as drawn. “And” between values parts separate entries of the source, which are not always exact repeats. Identical values can stand only once. Like-named read-outs stand apart in the source and are kept apart here. No end group written: not given here.

Key:
Assay type in all cases: cell-based
[1] = test system: Pasteurella haemolytica ATCC 29701; assay: MIC (microdilution) against P. haemolytica; details: Mannheimia haemolytica, ATCC29701, read-out: MIC P. haemolytica, Table ST1
Description: (§1) Staphylococcus aureus str. Newman, Enterococcus faecalis vanA (strain E0155), Enterococcus faecium vanA (strain E1654), Escherichia coli ATCC 25922, Escherichia coli D21f2 with a truncated LPS barrier, Escherichia coli JW5503 (ΔtolC) ([49]), Pseudomonas aeruginosa ATCC 27853, and Pasteurella haemolytica ATCC 29701 were grown in Mueller-Hinton Broth (MHB) (Oxoid, Basingstoke, UK) and incubated at 37°C.
(§2) The minimal inhibitory concentration was determined using the microdilution method following the guidelines of the European Committee on Antimicrobial Susceptibility Testing ([50]). Briefly, a series of twofold dilutions in MHB of each compound were made in a 96-well plate, with final concentrations ranging from 50 to 0.39 µg/mL in 100 µL final volume per well. A hundred microliters of 1:100 dilution of an overnight culture of the correspondent bacteria in MHB was added to each well. Plates were incubated for 18 hours at 37°C. MIC was recorded as the lowest concentration where no growth was detected as measured by optical density at 600 nm (OD600) using Spectramax M5 (Molecular Devices LLC, San Jose, CA, USA). […] Wells containing bacteria with or without 1% DMSO and medium alone were included as controls in every plate.

[2] = test system: Escherichia coli JW5503 (ΔtolC); assay: MIC (microdilution) against E. coli JW5503; details: Escherichia coli, read-out: MIC E. coli JW5503
From the text: (§3) We also tested the inhibitory activity of compounds in two different E. coli mutants: (i) E. coli JW5503 that lacks TolC efflux pumps and (ii) E. coli D21f2 that has a defective LPS inner core increasing permeability of the outer membrane. E. coli D21f2 has a slightly higher susceptibility to DPP compounds than E. coli ATCC25922.
as §1, §2

[3] = test system: Staphylococcus aureus str. Newman; assay: Minimal inhibitory concentration (microdilution) against S. aureus; details: for MIC S. aureus: Table ST3
Description: as §1, §2

[4] = test system: Pseudomonas aeruginosa ATCC 27853; assay: MIC (microdilution) against P. aeruginosa; details: Pseudomonas aeruginosa
Description: as §1, §2

S. aureus str. Newman = assay: Membrane permeability using SYTOX-Green, flow cytometry; details: for % FITC stained bacteria 0.5 xMIC: 0.5× MIC; for % FITC stained bacteria 1 xMIC / Loss of membrane integrity: 1× MIC; for Membrane damage: if considered to cause membrane damage to S. aureus
Description: S. aureus str. Newman was grown to exponential phase (OD600 = 0.4) in MHB media. […] Nisin (Sigma-Aldrich) and novobiocin (Sigma-Aldrich) were used as positive and negative controls for membrane permeabilization, and stained and unstained untreated controls were also included in each assay. After exposure, samples were centrifuged at 4,000 r.p.m. for 5 min and resuspended in PBS. Bacteria were dyed by adding the fluorescent nuclear stain SYTOX Green (Molecular Probes, Invitrogen) to a final concentration of 0.5 µM and incubating for 5 min in the dark. Samples were centrifuged again and resuspended with PBS to remove unbound stain. Three hundred microliters of each sample was transferred to a clean well in a 96-well clear-bottom plate (Corning Incorporated). Fluorescence was measured in CytoFLEX flow cytometer (Beckman Coulter, Brea, CA, USA) using the green (FITC) channel with the excitation wavelength at 488 nm. Overlay histograms were created with CytExpert Software (Beckman Coulter, Brea, CA, USA).

HEK293 cells = assay: in vitro; details: LC50/MIC (HEK293 / S. aureus)
Description: (§4) HEK293 cells and the human hepatocellular carcinoma cells (HepG2) were routinely cultured in 75-cm^2 culture flasks (Corning Incorporated) on high-glucose Dulbecco’s modified Eagle medium (DMEM) containing glutaMax and phenol red (Gibco) supplemented with 1% penicillin/streptomycin (Gibco) and 10% fetal bovine serum (FBS) (Gibco). Cells were maintained at 37°C and 5% CO2.
(§5) Cytotoxicity assays with HEK293 and HepG2 cells were performed in 96-well plates seeded with 5 × 10^4 cells/well and incubated for 24 hours to reach 80%–90% confluency. Exterior wells were filled with only medium to prevent evaporation. Culture medium was removed from the cells, and 100 µL of exposure medium [high-glucose DMEM without phenol red (Gibco)] was added to avoid a potential interaction between FBS components or antibiotics and tested compounds. A twofold dilution series of compounds in exposure medium (range 100–3.2 μg/mL) was made in a separate 96-well plate, and 100 µL of each of these dilutions was added to the assay plates for 24 hours at 37°C in the presence of 5% CO2. Control wells contained cells with DMEM, DMEM + 1% DMSO (vehicle control), or DMEM + 20% DMSO. Wells without cells were also included as negative control. After exposure, the medium was replaced with 100 µL 10% Alamar Blue (Invitrogen) in exposure medium. After 45 min incubation at 37°C and 5% CO2, fluorescence was measured on a Spectramax M5 plate reader at λex = 541 nm, λem = 590 nm. Cell viability compared with the vehicle control was calculated, and inhibition curves for each compound were fitted (non-linear curve fit, four variables, bottom constrained = 0) in Prism 9 (GraphPad Software, San Diego, USA).

[5] = test system: Escherichia coli ATCC 25922; assay: MIC (microdilution) against E. coli; details: Escherichia coli
Description: as §1, §2

[6] = test system: Enterococcus faecalis vanA (strain E0155); assay: MIC (microdilution) against E. faecalis; details: Enterococcus faecalis, read-out: MIC E. faecalis
Description: as §1, §2

[7] = test system: Enterococcus faecium vanA (strain E1654); assay: MIC (microdilution) against E. faecium; details: Enterococcus faecium, read-out: MIC E. faecium
Description: as §1, §2

[8] = test system: Escherichia coli D21f2 with a truncated LPS barrier; assay: MIC (microdilution) against E. coli D21f2; details: read-out: MIC E coli D21f2
From the text: as §3, §1, §2

in vitro = details: human
Description: as §4, §5

[9] = Staphylococcus aureus, NEWMAN, Fig 2
[10] = Staphylococcus aureus, NEWMAN, Fig 2, value in parentheses
[11] = Table ST3, value in parentheses
[12] = ATCC27853, Table ST1, read-out: MIC P. aeruginosa
[13] = ATCC25922, Table ST1, read-out: MIC E. coli

Compound | MIC [1] [µg/mL] | MIC [2] [µg/mL] | MIC [3, 9] [µg/mL] | MIC [3, 10] [µM] | MIC S. aureus [3] [µg/mL] | MIC [3, 11] [µM] | MIC [4, 12] [µg/mL] | % FITC stained bacteria 0.5 xMIC (S. aureus str. Newman; 5 min exposure) [%] | % FITC stained bacteria 1 xMIC (S. aureus str. Newman; 5 min exposure) [%] | % FITC stained bacteria 2 xMIC (S. aureus str. Newman; 2× MIC, 5 min exposure) [%] | Selectivity Index (HEK293 cells) | MIC [5, 13] [µg/mL] | MIC [6] [µg/mL] | MIC [7] [µg/mL] | CC50 at 24 h (in vitro) | also measured
Oc1ccc(-c2[nH]nc(C(F)(F)F)c2-c2ccccc2)c(O)c1 [DPP-1] | 25 (≈ 78.1 µM) | 1.56 (≈ 4.87 µM) | 6.25 | 19.5 | 6.25 (≈ 19.5 µM) | 19.53 | > 250 | 30.46 | 39.72 | 46.63 | 0.65 | > 250 | 12.5 (≈ 39 µM) | 12.5 (≈ 39 µM) | – | Membrane damage (S. aureus str. Newman): YES
Oc1cc(OCc2ccccc2)ccc1-c1[nH]nc(C(F)(F)F)c1-c1ccccc1 [DPP-4] | 125 (≈ 305 µM) | 6.25 (≈ 15.2 µM) | 1.56 | 3.8 | 1.56 (≈ 3.8 µM) | 3.80 | > 250 | 7.94 | 14.15 | 19.78 | 4.65 | > 250 | 3.12 (≈ 7.6 µM) | 3.12 (≈ 7.6 µM) | 7.26 µg/mL and 17.7 µM | MIC [8]: > 50 µg/mL; Loss of membrane integrity (S. aureus str. Newman; 5 min exposure): did not cause significant loss of membrane integrity
Cc1n[nH]c(-c2ccc(O)cc2O)c1-c1ccc(Cl)cc1 [DPP-9] | 25 (≈ 83.1 µM) | 12.5 (≈ 41.6 µM) | 25 | 83.3 | 25 (≈ 83.1 µM) | 83.33 | > 250 | 38.22 | 41.34 | 43.78 | 0.49 | > 250 | 25 (≈ 83.1 µM) | 25 (≈ 83.1 µM) | – | MIC [8]: 50 µg/mL (≈ 166 µM); Membrane damage (S. aureus str. Newman): YES
COc1ccc(-c2[nH]nc(C)c2-c2ccc(Cl)cc2)c(O)c1 [DPP-10] | 62.5 (≈ 199 µM) | 6.25 (≈ 19.9 µM) | 25 | 79.4 | 25 (≈ 79.4 µM) | 79.37 | > 250 | 28.57 | 37.28 | 40.99 | 0.93 | > 250 | 250 (≈ 794 µM) | 250 (≈ 794 µM) | – | MIC [8]: 250 µg/mL (≈ 794 µM); Membrane damage (S. aureus str. Newman): YES
COc1ccc(-c2c(C(F)(F)F)n[nH]c2-c2ccc(OCc3ccccc3)cc2O)cc1 [DPP-15] | > 250 | 3.12 (≈ 7.08 µM) | 3.12 | 7.09 | 3.12 (≈ 7.08 µM) | 7.09 | > 250 | 9.29 | 13.68 | 18.42 | 3.10 | > 250 | 1.56 (≈ 3.54 µM) | 1.56 (≈ 3.54 µM) | 9.64 µg/mL and 21.9 µM | Loss of membrane integrity (S. aureus str. Newman; 5 min exposure): did not cause significant loss of membrane integrity
COc1ccccc1-c1c(C(F)(F)F)n[nH]c1-c1ccc(O)cc1O [DPP-16] | 50 (≈ 143 µM) | 3.13 (≈ 8.94 µM) | 25 | 71.4 | 25 (≈ 71.4 µM) | 71.43 | > 250 | – | – | – | 0.65 | > 250 | 50 (≈ 143 µM) | 50 (≈ 143 µM) | 16.4 µg/mL and 46.7 µM | –
COc1ccc(-c2[nH]nc(C(F)(F)F)c2-c2ccccc2OC)c(O)c1 [DPP-17] | 50 (≈ 137 µM) | 6.25 (≈ 17.2 µM) | 25 | 68.5 | 25 (≈ 68.6 µM) | 68.49 | – | – | – | – | 0.50 | – | – | > 250 | 12.6 µg/mL and 34.5 µM | MIC ([4]; ATCC27853, read-out: MIC P. aeruginosa): > 250 µg/mL; MIC ([5]; ATCC25922, read-out: MIC E. coli): > 250 µg/mL; MIC ([6]; 18 h): > 250 µg/mL
COc1ccc(-c2c(C(F)(F)F)n[nH]c2-c2ccc(O)cc2O)cc1OC [DPP-18] | > 250 | 6.25 (≈ 16.4 µM) | 50 | 132 | 50 (≈ 131 µM) | 131.58 | > 250 | – | – | – | 0.45 | > 250 | 50 (≈ 131 µM) | 50 (≈ 131 µM) | 22.8 µg/mL and 60 µM | –
COc1ccc(-c2[nH]nc(C(F)(F)F)c2-c2ccc(OC)c(OC)c2)c(O)c1 [DPP-19] | > 250 | 12.5 (≈ 31.7 µM) | 25 | 63.3 | 25 (≈ 63.4 µM) | 63.29 | > 250 | – | – | – | 0.55 | > 250 | 50 (≈ 127 µM) | 50 (≈ 127 µM) | 13.7 µg/mL and 34.6 µM | –
CO[C@@H]1[C@@H](OC(N)=O)[C@@H](O)[C@H](Oc2ccc3c(O)c(NC(=O)c4ccc(O)c(CC=C(C)C)c4)c(=O)oc3c2C)OC1(C)C [Novobiocin, reference compound] | – | – | – | – | – | – | – | 8.28 | 12.62 | 13.17 | – | – | – | – | – | Effect on membrane integrity (S. aureus str. Newman; 2× MIC, 5 min exposure): no effect on membrane integrity
Nisin: positive control for membrane permeabilization (ITSISLCTPGCKTGALMGCNMKTATCHCSIHVSK; ends and bridges not checked; also: lantibiotic nisin A: dehydrated residues and lanthionine rings not given here; UniProt P13068 24-57, looked up) [reference compound] | – | – | – | – | – | – | – | 16.37 | 53.32 | 59.41 | – | – | – | – | – | –
